Data taken from patent US10960005B2, “Treatment of relapsed and/or refractory solid tumors and non-hodgkin's lymphomas” (CELGENE QUANTICEL RESEARCH, INC., priority 2016, dated 2021).
Like-named read-outs stand apart in the source and are kept apart here.

Experiments:
[1] = system: LXFS 573 SCLC patient-derived xenograft; type: in vivo
[2] = system: ST18 and FREM2 expression in MS-1 tumors; experiment: In vivo xenograft dose-response of PD biomarker gene expression, MS-1; design: species or system mice; settings: 1, 2.5, or 5 mg/kg PO BID ×4.5; tumors 4 h after last dose
Source text: Female NSG mice bearing palpable hMCC MKL-1 and MS-1 tumors were randomized into four groups of three mice each. […] The fourth group was orally administered vehicle as a control on the BID schedule. Four hours after the last dosing, tumors were collected into RNA later and stored frozen.
Total RNA was eluted in RNase-free water and analyzed by qRT-PCR.

[3] = system: H3K4me2 at ST18 and FREM2 gene loci in MKL-1 cells; experiment: ChIP-seq LSD1 occupancy and H3K4me2 status, MKL-1; type: cell-based, human; settings: 100 nM, 3 days
[4] = 4-week oral gavage toxicity study with 4-week recovery in dogs (QW/BIW); settings: for mean AUC0-168 / mean Cmax: 0.375 mg base/kg/dose QW; for Steady state Cmax: 0.75 mg base/kg/dose QW
[5] = system: LU2527 lung NEC patient-derived xenograft; experiment: Efficacy in LU2527 lung neuroendocrine carcinoma PDX model; settings: 5 mg base/kg PO QD; Day 46
NCI-H1417 SCLC xenograft = type: in vivo
[6] = system: LU2514 SCLC patient-derived xenograft; experiment: Efficacy in LU2514 HuPrime SCLC PDX model; type: in vivo, mice; settings: Day 28
Protocol: Tumor growth inhibition analysis was performed on Day 28 post treatment, the last day of dosing.
In both studies with LU2514 animal model.

[7] = system: LU1480 SCLC patient-derived xenograft; experiment: Efficacy in LU1480 HuPrime SCLC PDX model; type: in vivo, mice
MKL-1 hMCC cells = experiment: hMCC cell proliferation inhibition (2D, CellTiter-Glo), MKL-1; type: cell-based, human; settings: MKL-1, 2D format, 7 days
Protocol: MKL-1 hMCC cells were cultured in vitro in RPMI-1640 culture medium (Life Technologies, Carlsbad, Calif.) containing 100 units/mL penicdlin G sodium and 100 μg/mL streptomycin sulfate (cRPMI) supplemented with 10% fetal bovine serum (FBS). MS-1 hMCC cells were cultured in vitro in cRPMI supplemented with 20% FBS.
Four to six replicates were performed at each concentration.

LNCaP cells [8] = experiment: LNCaP cell proliferation with rapamycin; type: cell-based, human; settings: 100 nM Compound A + 100 nM rapamycin vs rapamycin alone; 90 hours
[9] = system: Salmonella typhimurium TA98 and TA100 strains; experiment: Bacterial reverse mutation assay; type: cell-based; settings: up to 500 μg/mL; in presence and absence of S9
LNCaP cells [10] = experiment: LNCaP cell proliferation with DHT and irradiation; type: cell-based, human; settings: 100 nM Compound A + 10 nM DHT + 2Gy irradiation vs DHT with irradiation or DHT with Compound A; 220 hours
Protocol: LNCaP cells are androgen-sensitive human prostate adenocarcinoma cells. […] The proliferation of the LNCap cells was monitored for 220 hours.

[11] = Pharmacokinetics after single IV and oral dose, Beagle dogs; type: in vivo; settings: Dog, male
Protocol: AUClast=area under the plasma concentration-time curve from time zero to time of last measurable concentration; Cmax=maximum plasma concentration; F=oral bioavailability; hr=hour, PK=pharmacokinetic; SD=standard deviation; t1/2 z=apparent half-life of the terminal phase of the concentration-time curve; tmax=time of Cmax. In mouse, PK parameters were determined using composite plasma samples obtained from n=3animals/time point. In other species, PK parameters are from n=3 animals and values shown are mean and SD (in parentheses).

[12] = system: LXFS 1129 SCLC patient-derived xenograft
[13] = system: LXFS 2156 SCLC patient-derived xenograft; experiment: Efficacy in LXFS 2156 SCLC PDX model; type: in vivo, mice; settings: 5 mg base/kg orally QD×23
[14] = Compound A 1 mg/kg in combination with etoposide 24 mg/kg
[15] = 0.375 mg base/kg/dose BIW, males, Day 22
[16] = Dogs, Day 1, 0.75 mg base/kg/dose oral once weekly, M
[17] = Dogs, Day 1, 1.5 mg base/kg/dose oral once weekly, F
[18] = Dogs, Day 1, 1.5 mg base/kg/dose oral once weekly, M
[19] = Dogs, Day 22, 0.375 mg base/kg/dose oral once weekly, F
[20] = Dogs, Day 22, 0.375 mg base/kg/dose oral once weekly, M
[21] = Dogs, Day 22, 0.375 mg base/kg/dose oral twice weekly, M
[22] = Dogs, Day 22, 0.75 mg base/kg/dose oral once weekly, F
[23] = Dogs, Day 22, 0.75 mg base/kg/dose oral once weekly, M
[24] = QW or BIW schedule, not determined
[25] = Compound A monotherapy 5 mg/kg PO 5 on/2 off
[26] = etoposide 24 mg/kg SC QD×3 followed by Compound A 5 mg/kg PO 5 on/2 off

COc1ccc(-c2c(-c3ccc(C#N)c(F)c3)nc(N3CCC(N)CC3)n(C)c2=O)cc1F [Compound A]
% TGD [1, 14]: 38%
TGD [1, 14]: 16 days
median TTE [1, 14]: 59 days
survivors on Day 133 ([1]; Compound A 1 mg/kg in combination with etoposide 24 mg/kg, of eight): 1
TGD ([1]; Compound A 2.5 mg/kg in combination with etoposide 24 mg/kg): 79 days
survivors on Day 133 ([1]; Compound A 2.5 mg/kg in combination with etoposide 24 mg/kg, of eight): 3
TGD ([1]; Compound A 5 mg/kg in combination with etoposide 24 mg/kg): 91 days
survivors on Day 133 ([1]; Compound A 5 mg/kg in combination with etoposide 24 mg/kg, of eight): 8
study survivors on Day 133 ([1]; Compound A monotherapy 5 mg/kg, of eight): seven
ST18 and FREM2 change in gene expression in vivo [2]: ≥ 2 fold
H3K4me2 at the LSD1 binding site of FREM2 gene [3]: increased H3K4me2
H3K4me2 at the LSD1 binding site of ST18 gene [3]: increased H3K4me2
Cmax ([4]; 0.375 mg base/kg/dose BIW, females, Day 22): 19.0 ng/mL
Cmax [4, 15]: 17.7 ng/mL
mean AUC0-72 [4, 15]: 307 ng·h/mL
mean AUC0-168 ([4]; females, Day 22): 269 ng·h/mL
mean Cmax ([4]; females, Day 22): 15.5 ng/mL
mean AUC0-168 ([4]; males, Day 22): 384 ng·h/mL
mean Cmax ([4]; males, Day 22): 21.9 ng/mL
Steady state Cmax ([4]; females): 40.8 ng/mL
Steady state Cmax ([4]; males): 36.2 ng/mL
AUC0-168 ([4]; Dogs, Day 1, 0.375 mg base/kg/dose oral once weekly, M): 503 ng·h/mL
AUC0-72 ([4]; Dogs, Day 1, 0.375 mg base/kg/dose oral twice weekly, M): 420 ng·h/mL
AUC0-168 ([4]; Dogs, Day 1, 0.75 mg base/kg/dose oral once weekly, F): 1180 ng·h/mL
AUC0-168 [4, 16]: 955 ng·h/mL
Cmax [4, 16]: 34 ng/mL
AUC0-168 [4, 17]: 2680 ng·h/mL
Cmax [4, 17]: 80.0 ng/mL
AUC0-168 [4, 18]: 2530 ng·h/mL
Cmax [4, 18]: 90.6 ng/mL
AUC0-168 [4, 19]: 269 ng·h/mL
Cmax [4, 19]: 15.5 ng/mL
AUC0-168 [4, 20]: 384 ng·h/mL
Cmax [4, 20]: 21.9 ng/mL
Cmax ([4]; Dogs, Day 22, 0.375 mg base/kg/dose oral twice weekly, F): 19.0 ng/mL
AUC0-72 [4, 21]: 307 ng·h/mL
Cmax [4, 21]: 17.7 ng/mL
AUC0-168 [4, 22]: 719 ng·h/mL
Cmax [4, 22]: 40.8 ng/mL
AUC0-168 [4, 23]: 645 ng·h/mL
Cmax [4, 23]: 36.2 ng/mL
HNSTD [4, 24]: < 0.375 mg base/kg/dose
NOAEL [4, 24]: < 0.375 mg base/kg/dose
moribund euthanasia ([4]; weekly oral 0.375-1.5 mg base/kg/dose, between study Days 13 and 23): 11 animals
primary toxicities ([4]; ≥0.375 mg base/kg/dose, QW or BIW): mucosal ulceration, acute and/or subacute inflammation, and mucosal epithelial atrophy ofGI tract tissues
% TGI [5]: 84%
% TGD (NCI-H1417 SCLC xenograft; [25]): 335%
TGD (NCI-H1417 SCLC xenograft; [25]): 87 days
median TTE (NCI-H1417 SCLC xenograft; [25]): 113 days
% TGD (NCI-H1417 SCLC xenograft; [26]): 435%
TGD (NCI-H1417 SCLC xenograft; [26]): 113 days
median TTE (NCI-H1417 SCLC xenograft; [26]): 139 days
% TGI ([6]; 5 mg base/kg PO QD × 28): 43%
% TGI ([6]; 10 mg base/kg PO QD × 28): 61%
% TGI ([7]; 10 mg base/kg PO QD × 21): 72%
TGI ([7]; 10 mg base/kg orally for 15 days (second LU1480 experiment)): 46%
IC50 (MKL-1 hMCC cells): 18.4 nM
LNCaP cell proliferation (LNCaP cells [8]): greater inhibition of LNCap cell proliferaton
mutagenicity [9]: negative for mutagenicity
LNCaP cell proliferation (LNCaP cells [10]): significantly inhibits LNCaP cell proliferation
AUC∞ ([11]; single IV 1 mg base/kg): 1944 ng·h/mL
CL ([11]; single IV 1 mg base/kg): 9 mL/min/kg
Vss ([11]; single IV 1 mg base/kg): 11.058 L/kg
t1/2,z ([11]; single IV 1 mg base/kg): 15.5 h
% F ([11]; single oral 1 mg base/kg): 84%
AUClast ([11]; single oral 1 mg base/kg): 1089 ng·h/mL
Cmax ([11]; single oral 1 mg base/kg): 69 ng/mL
t1/2,z ([11]; single oral 1 mg base/kg): 15.0 h
tmax ([11]; single oral 1 mg base/kg): 2.0 h
% F ([11]; single oral 3 mg base/kg): 100%
AUClast ([11]; single oral 3 mg base/kg): 3792 ng·h/mL
Cmax ([11]; single oral 3 mg base/kg): 298 ng/mL
t1/2,z ([11]; single oral 3 mg base/kg): 19.4 h
tmax ([11]; single oral 3 mg base/kg): 1.0 h
% F ([11]; single oral 6 mg base/kg): 100%
AUClast ([11]; single oral 6 mg base/kg): 8792 ng·h/mL
Cmax ([11]; single oral 6 mg base/kg): 627 ng/mL
t1/2,z ([11]; single oral 6 mg base/kg): 17.8 h
tmax ([11]; single oral 6 mg base/kg): 1.0 h
AUC0-24 ([12]; 1.5 mg base/kg): 243 ng·h/mL
AUC0-24 ([12]; 5 mg base/kg): 1,262 ng·hr/mL
mean body weight losses ([12]; mouse, in vivo): < 6%
TGI [13]: −7%
